The series is described as follows: Henry solubility constant Hcp at 298.15 K (mol/(m3 Pa)).
Where [1] appears, read: reference: Chang and Criddle (1995).
Setting [2] is: reference: Rochester and Symonds (1973).
Setting [3] is: reference: Bobadilla et al. (2003).
Where [4] appears, read: reference: Butler and Ramchandani (1935).
Setting [5] is: reference: Brockbank et al. (2013).
Setting [6] is: reference: Kuramochi et al. (2004).
Setting [7] is: reference: Drouillard et al. (1998).
Setting [8] is: reference: Warner et al. (1980).
Setting [9] is: reference: Ondo and Dohnal (2007).
[10] abbreviates: reference: Sarraute et al. (2006).
The mark [11] stands for this setting: reference: Christie and Crisp (1967).
The mark [12] stands for this setting: reference: Shunthirasingham et al. (2013).

This is an account of results in Sander's compilation of Henry's law constants.

“And” between values parts separate entries of the source, which are not always exact repeats. Identical values can stand only once.

Take `COP(=O)(OC)C(O)C(Cl)(Cl)Cl` (stereo not drawn): the “Henry solubility constant Hcp” value (reference: Kawamoto and Urano (1989)) is above 810.
For the molecule `C[C@@H]1CCCC[C@H]1C` (relative stereo) [trans-1,2-dimethylcyclohexane], the “Henry solubility constant Hcp” value (reference: Dohányosová et al. (2004)) stood at 1.6e-05.
For the molecule `FC(C(F)(F)F)C(F)(F)F` [1,1,1,2,3,3,3-heptafluoropropane], the “Henry solubility constant Hcp” value (reference: Reichl (1995)) was found to be 1.4e-05.
On to `FCC(F)(F)F` [1,1,1,2-tetrafluoroethane], for which the “Henry solubility constant Hcp” value under setting [1] was found to be 0.00019, the “Henry solubility constant Hcp” value (reference: Maaßen (1995)) worked out at 0.00016, the “Henry solubility constant Hcp” value (reference: Reichl (1995)) stood at 0.00016 and the “Henry solubility constant Hcp” value (reference: Zheng et al. (1997)) came to 0.00016.
Consider `OC(C(F)(F)F)C(F)(F)F` [1,1,1,3,3,3-hexafluoro-2-propanol], for which the “Henry solubility constant Hcp” value under setting [2] was determined as 0.24.
For the molecule `CC(O)C(F)(F)F` (stereo not drawn) [1,1,1-trifluoro-2-propanol], the “Henry solubility constant Hcp” value under setting [2] stood at 0.45.
For the molecule `CC(=O)C(F)(F)F` [1,1,1-trifluoro-2-propanone], the “Henry solubility constant Hcp” value (reference: Betterton (1991)) is 1.4.
With `BrC(Br)C(Br)Br` [1,1,2,2-tetrabromoethane], the “Henry solubility constant Hcp” value (reference: Khalfaoui and Newsham (1994a)) is 0.01.
For the molecule `OCCC(F)(F)C(F)(F)C(F)(F)C(F)(F)C(F)(F)C(F)(F)C(F)(F)C(F)(F)C(F)(F)C(F)(F)F` [1,1,2,2-tetrahydroperfluoro dodecanol], where the note is “reference: Wu and Chang (2011)”, the “Henry solubility constant Hcp” value was 0.00013.
In the case of `ClCC(Cl)Cl` [1,1,2-trichloroethane], under setting [3], the “Henry solubility constant Hcp” value worked out at 0.012.
As for `CC(F)(Cl)Cl` [1,1-dichloro-1-fluoroethane], the “Henry solubility constant Hcp” value is, setting by setting: (reference: Kutsuna (2013)) 0.00029; (reference: Maaßen (1995)) 0.00028.
Consider `ClC(Cl)=C(c1ccc(Cl)cc1)c1ccc(Cl)cc1` [1,1-dichloro-2,2-bis-(4-chlorophenyl)-ethene], for which, where the note is “reference: Jantunen and Bidleman (2006)”, the “Henry solubility constant Hcp” value is 0.029.
Consider `CC(F)F` [1,1-difluoroethane], for which the “Henry solubility constant Hcp” value came to 0.0005 (reference: Maaßen (1995)), 0.00049 (reference: Reichl (1995)) and 0.00049 (reference: Zheng et al. (1997)).
As for `Clc1c(Cl)c(Cl)c2c(c1Cl)Oc1ccccc1O2` [1,2,3,4-tetrachlorodibenzo-p-dioxin], the “Henry solubility constant Hcp” value (reference: Santl et al. (1994)) was 0.5.
As for `OCC(O)CO` [1,2,3-propanetriol], under setting [4], the “Henry solubility constant Hcp” value stood at 580.
In the case of `Clc1cccc(Cl)c1Cl` [1,2,3-trichlorobenzene], the “Henry solubility constant Hcp” value under setting [5] came to 0.0063.
On to `ClCC(Cl)CCl` [1,2,3-trichloropropane], for which the “Henry solubility constant Hcp” value (reference: Tancrède and Yanagisawa (1990)) stood at 0.044.
In the case of `Brc1cc(Br)c(Br)cc1Br` [1,2,4,5-tetrabromobenzene], under setting [6], the “Henry solubility constant Hcp” value came out at 0.0027.
As for `Clc1cc(Cl)c(Cl)cc1Cl` [1,2,4,5-tetrachlorobenzene], for the setting “reference: McPhedran et al. (2013)”, the “Henry solubility constant Hcp” value turned out to be 0.018.
For `Brc1ccc(Br)c(Br)c1` [1,2,4-tribromobenzene], the “Henry solubility constant Hcp” value under setting [6] was determined as 0.031.
As to `Clc1cc(Cl)c2c(c1Cl)Oc1ccccc1O2` [1,2,4-trichlorodibenzo-p-dioxin], where the note is “reference: Santl et al. (1994)”, the “Henry solubility constant Hcp” value is 0.27.
Regarding `ClCC(Cl)CCCCCCC(Cl)CCl` (stereo not drawn) [1,2,9,10-tetrachlorodecane], the “Henry solubility constant Hcp” value under setting [7] worked out at 0.056.
The same measure, in the same setting: with `ClCC(Cl)CCCCCCCC(Cl)CCl` (stereo not drawn) [1,2,10,11-tetrachloroundecane] the figure was 0.16.
On to `CC(N)CN` (stereo not drawn) [1,2-diaminopropane], for which the “Henry solubility constant Hcp” value (reference: Nguyen (2013)) was 1400.
Regarding `CC(Cl)CCl` (stereo not drawn) [1,2-dichloropropane], the “Henry solubility constant Hcp” value is 0.003 (reference: Bissonette et al. (1990)), 0.0042 under setting [3] and 0.0035 under setting [8].
For `FC(F)(Cl)C(F)(F)Cl` [1,2-dichlorotetrafluoroethane], the “Henry solubility constant Hcp” value (reference: Reichl (1995)) worked out at 9e-06.
As for `COCCOC` [1,2-dimethoxyethane], the “Henry solubility constant Hcp” value under setting [9] worked out at 1.4.
Take `CC12CCC(CC1)C(C)(C)O2` [1,3,3-trimethyl-2-oxabicyclo[2.2.2]octane]: the “Henry solubility constant Hcp” value was 0.12 (reference: Amoore and Buttery (1978)); 0.059 (reference: Kish et al. (2013)).
Turning to `COc1c(Cl)cc(Cl)cc1Cl` [1,3,5-trichloro-2-methoxybenzene], the “Henry solubility constant Hcp” value (reference: Wu et al. (2022a)) came out at 0.023.
As for `C=CC=C` [1,3-butadiene], the “Henry solubility constant Hcp” value (reference: Ross and Hudson (1957)) was found to be 0.00014.
Take `FC(Cl)C(F)(F)C(F)(F)Cl` (stereo not drawn) [1,3-dichloro-1,1,2,2,3-pentafluoro-propane]: the “Henry solubility constant Hcp” value (reference: Kutsuna (2013)) is 0.00011.
For the molecule `ClC=CCCl` [1,3-dichloropropene], the “Henry solubility constant Hcp” value under setting [8] came to 0.0028.
On to `C1COCO1` [1,3-dioxolane], for which the “Henry solubility constant Hcp” value under setting [9] stood at 0.43.
For `C1CNCCN1` [1,4-diazacyclohexane], the “Henry solubility constant Hcp” value (reference: Nguyen (2013)) worked out at 4500.
For `Brc1ccc(Br)cc1` [1,4-dibromobenzene], the “Henry solubility constant Hcp” value under setting [6] came to 0.0094.
On to `NCCCCCCN` [1,6-hexanediamine], for which the “Henry solubility constant Hcp” value (reference: Nguyen (2013)) stood at 1000.
`BrCCCCCCCCBr` [1,8-dibromooctane]: the “Henry solubility constant Hcp” value under setting [10] was determined as 0.013.
The same measure, in the same setting: with `ClCCCCCCCCCl` [1,8-dichlorooctane] the figure was 0.0071.
In the case of `Cc1ccc(Br)cc1` [1-bromo-4-methylbenzene], under setting [5], the “Henry solubility constant Hcp” value was determined as 0.0034.
As to `CCCCN` [1-butanamine], the “Henry solubility constant Hcp” value by setting is: under setting [4], 0.65; under setting [11], 0.56.
With `CCCCS` [1-butanethiol], the “Henry solubility constant Hcp” value (reference: Coquelet and Richon (2005)) stood at 0.0015; the “Henry solubility constant Hcp” value (reference: Haimi et al. (2006)) was found to be 0.0015.
`C=CCC` [1-butene]: under “reference: Serra and Palavra (2003)”, the “Henry solubility constant Hcp” value amounted to 4.5e-05.
`CCCCO[N+](=O)[O-]` [1-butyl nitrate]: the “Henry solubility constant Hcp” value reads like this: (reference: Hauff et al. (1998)) 0.0063; (reference: Luke et al. (1989)) 0.01.
As for `C#CCC` [1-butyne], the “Henry solubility constant Hcp” value (reference: Simpson and Lovell (1962)) amounted to 0.00072.
In the case of `CC(F)(F)Cl` [1-chloro-1,1-difluoroethane], the “Henry solubility constant Hcp” value is, setting by setting: under setting [1], 0.00015; (reference: Kutsuna (2013)) 0.00015; (reference: Maaßen (1995)) 0.00014; (reference: Reichl (1995)) 0.00014.
Regarding `FC(Cl)C(F)(F)F` (stereo not drawn) [1-chloro-1,2,2,2-tetrafluoroethane], the “Henry solubility constant Hcp” value (reference: Kutsuna (2013)) was found to be 0.00011, the “Henry solubility constant Hcp” value (reference: Maaßen (1995)) worked out at 0.0001 and the “Henry solubility constant Hcp” value (reference: Reichl (1995)) came to 0.00011.
Regarding `CCCCCCCCCCO` [1-decanol], the “Henry solubility constant Hcp” value reads like this: (reference: Lei et al. (2007)) 0.065; under setting [12], 0.076.
Take `CCc1cccc2ccccc12` [1-ethylnaphthalene]: the “Henry solubility constant Hcp” value (reference: Schwarz and Wasik (1977)) amounted to 0.022.
Consider `CCCCCCCO` [1-heptanol], for which the “Henry solubility constant Hcp” value (reference: Lei et al. (2007)) was found to be 0.36 and the “Henry solubility constant Hcp” value under setting [12] amounted to 0.38.
With `CCCCCCN` [1-hexanamine], under setting [11], the “Henry solubility constant Hcp” value stood at 0.37.
For the molecule `CCCCCCO` [1-hexanol], the “Henry solubility constant Hcp” value (reference: Gupta et al. (2000)) came to 0.39, the “Henry solubility constant Hcp” value (reference: Lei et al. (2007)) was 0.51, the “Henry solubility constant Hcp” value under setting [12] worked out at 0.57 and the “Henry solubility constant Hcp” value (reference: Souchon et al. (2004)) worked out at 0.38.
For the molecule `CCCCCCO[N+](=O)[O-]` [1-hexyl nitrate], under “reference: Hauff et al. (1998)”, the “Henry solubility constant Hcp” value is 0.0076.
Consider `Cc1ccc(C)c(O)c1` [1-hydroxy-2,5-dimethylbenzene], for which, under “reference: Dohnal and Fenclová (1995)”, the “Henry solubility constant Hcp” value is 7.5.
On to `COc1ccccc1O` [1-hydroxy-2-methoxybenzene], for which the “Henry solubility constant Hcp” value reads like this: (reference: McFall et al. (2020)) 8.6; (reference: Sagebiel et al. (1992)) 7.7 and 9.1; (reference: Wieland et al. (2015)) 9.
